“And” between values parts separate entries of the source, which are not always exact repeats. Equal entries are not always repeated.
Assays:
Bcl-2 = assay: Apoptotic markers assay: Bcl-2 level in HCT-116 cells; assay type: cell-based, human
Excerpt: (§1) Appendix A gives more details.
(§2) Apoptosis dysregulation is a hallmark of human cancer, resulting in uncontrolled proliferation, insufficient response to treatments, and the formation of drug-resistant cells.[60] As a result, current anticancer therapies are recognized for their ability to induce apoptosis in cancer cells via both extrinsic and intrinsic routes.[56]
The Bcl-2 protein family, comprising pro-apoptotic proteins (Bax) and anti-apoptotic proteins (Bcl-2), primarily regulates apoptosis. […] As a result, we evaluated the level of Bcl-2 and Bax proteins in HCT-116 colorectal cancer cells subjected to treatments with compounds 8g and 8h. […]
wash solution to every well. Repeat the wash 4 more times for a total of 5 washes. After the final wash, empty or aspirate the wells and firmly tap the plate on a lint free paper towel to remove any remaining wash buffer. Pipet 100 μL of yellow Antibody into each well, except the Blank. Seal the plate and incubate at room temperature on a plate shaker for 1 hour at ~500 rpm. Empty the contents of the wells and wash by adding 400 μL of […]
towel to remove any remaining wash buffer. Add 100 μL of blue Conjugate to each […]
for 30 minutes at ~500 rpm. Empty the contents of the wells and wash by adding 400 μL of wash solution to every well. Repeat the wash 4 more times for a total of 5 washes.
After the final wash, empty or aspirate the wells and firmly tap the plate on a lint free paper towel to remove any remaining wash buffer. Pipet 100 μL of Substrate Solution into each well. Incubate for 30 minutes at room temperature on a plate shaker at ~500 rpm. Pipet 100 μL Stop Solution to each well. Blank the plate reader against the Blank wells, read the optical density at 450 nm. Calculate the average net Optical Density (OD) bound for each standard and sample by subtracting the average Blank OD from the average OD for each standard and sample. […]
Approximate a straight line through the points. The concentration of Bax in the unknowns can be determined by interpolation. […]

Bax = assay: Apoptotic markers assay: Bax level in HCT-116 cells; assay type: cell-based, human; conditions: for Bax fold change: relative to untreated control
p53 = assay: Apoptotic markers assay: p53 level in HCT-116 cells; assay type: cell-based, human
Excerpt: as §1, §2
The ability of p53 overexpression to trigger apoptosis may clarify the common inactivation of p53 enzymes by cancer cells during transformation.[63]

Caspase-3 = Caspase-3 activation assay in HCT-116 cells; assay type: cell-based, human; conditions: for Caspase-3 fold change: relative to control
Protocol: as §1
Additionally, activating caspases is essential for both initiating and terminating the apoptotic process.[64] Caspase-3 is an essential enzyme that cleaves several proteins within cells, leading to apoptotic cell death.[65] […]
be read immediately after the Stop Solution is added or within one hour if the microwell strips are stored at 2 - 8°C in the dark. Read the absorbance of each microwell on a spectrophotometer using 450 nm as the primary wavelength.
4.2.5. Caspase-3 activation assay
Allow all reagents to reach room temperature before use. Gently mix all liquid reagents prior to use. Determine the number of 8-well strips needed for the assay. Insert these in the frame(s) for current use. Add 100 μl of the Standard Diluent Buffer to the zero standard wells. Well(s) reserved for chromogen blank should be left empty. Add 100 μl of standards and controls or diluted samples to the appropriate microtiter wells. The sample dilution chosen should be optimized for each experimental system. Tap gently on side of plate to mix. Cover wells with plate cover and incubate for 2 hours at room temperature. Thoroughly aspirate or decant solution from wells and discard the liquid, Wash wells 4 times. Pipette 100 μl of Caspase-3 (Active) Detection Antibody solution into each well except the chromogen blank(s). Tap gently on the side of the plate to mix. Cover plate with plate cover and incubate for 1 hour at room temperature.
Thoroughly aspirate or decant solution from wells and discard the liquid, Wash wells 4 times. Add 100 μl Anti-Rabbit IgG HRP Working Solution to each well except the chromogen blank(s). Prepare the working dilution as described in Preparing IgG HRP.
Cover wells with the plate cover and incubate for 30 minutes at room temperature.
Thoroughly aspirate or decant solution from wells and discard the liquid. Wash wells 4 times. Add 100 μl of Stabilized Chromogen to each well. The liquid in the wells will […]
begin to turn blue. […] The
Tap side of plate gently to mix.
Use a curve fitting software to generate […]
for the dilution in step 3.
4.2.6. Caspase-8/9 activation assay
This lysate was diluted in […]

[1] = In vitro cytotoxicity against normal human cells (MTT); assay type: cell-based; conditions: human, WI-38 cells (normal human diploid cell line), normal human diploid cell line WI-38, MTT
Excerpt: (§3) The results indicated a favorable safety margin for the evaluated compounds about normal cells, Table 5.

WI-38 = assay: as above; assay type: cell-based; conditions: for Selectivity index (SI), HCT-116: WI-38 versus HCT-116; for Selectivity index (SI), MCF-7: WI-38 versus MCF-7; for IC50: normal human diploid cell line WI-38, MTT
Excerpt: as §3

EGFR = EGFR (Homo sapiens, UniProt P00533); assay: EGFR inhibitory assay (EGFR-TK assay)
Protocol: Erlotinib was used as positive control in the assay.
To record autophosphorylation level, EGFR kinase assay was carried out on the basis of DELFIA/Time-Resolved Fluorometry. The compounds were first dissolved in DMSO
absolute, subsequent to dilution to appropriate concentration using HEPES (25 mM) at
pH 7.4. Each compound (10 μL) was incubated with recombinant enzyme (10 μL, 5 ng for EGFR, 1:80 dilution in 100 mM HEPES) for 10 min at 25 °C, subsequent to the addition of 5X buffer (10 μL, containing 2 mM MnCl2, 100 μM Na3VO4, 20 mM HEPES and 1 mM DTT) and ATP-MgCl2 (20 μL, containing 0.1 mM ATP and 50 mM MgCl2) and incubation for 1h. The negative and positive controls were included in each plate by the incubation of enzyme either with or without ATP-MgCl2. The liquid was removed after incubation and the plates were washed thrice using a wash buffer.
Europium-tagged antiphosphotyrosine antibody (75 μL, 400 ng) was added to each well followed by incubation of 1h and then washing of the plates using buffer. The enhancement solution was added to each well and the signal was recorded at excitation
The autophosphorylation percentage inhibition by compounds was calculated using the following equation:
Using the curves of percentage inhibition of eight concentrations of each compound,
were from EGFR because the enzyme preparation contained low impurities.

IL-6 = IL-6 level by qRT-PCR in HCT-116 cells; conditions: Homo sapiens, HCT-116, read-out: IL-6 (% inhibition)
Protocol: (§4) The reference molecule was dexamethasone, a drug that uniformly regulates the immune system.
TNF-α and IL6 a determination
(§5) determined using of q RT-PCR technique. By using q RTPCR (reference), the amount
(§6) treated HCT-116 cells was measured (at the IC50 concentrations). Total RNA was
(§7) accordance with the manufacturer's instructions (RNeasy mini kit, Qiagen, Germany).
(§8) Following RNA extraction, the Revert Aid First Strand cDNA Synthesis kit (Thermo
(§9) Scientific, USA) was used to create cDNA. The Rotor-Gene Q real-time PCR thermal
(§10) cycler was used to amplify target cDNA for apoptosis markers and GAPDH [as a
(§11) normalization (housekeeping) gene] using one step RT-PCR SYBR® Green kit Master
(§12) Mix (Bio-Rad Laboratories, USA). Two microliters of cDNA were combined with one
(§13) microliter of forward primer, one microliter of reverse primer, ten microliters of master
(§14) mixture, and twenty microliters of nuclease-free water to complete the reaction volume.
(§15) Every experiment was carried out three times.
(§16) Quantitative Real Time Reverse-Transcriptase PCR (qRT-PCR) primer sequences
TNF-α : R 5'- [sequence] -3'.
IL6 : R 5'- [sequence] -3
GAPDH : R 5’- [sequence]-3’

TNF-α = TNF-α level by qRT-PCR in HCT-116 cells; conditions: for TNF-α (% inhibition): HCT-116 cells, 24 hours, at IC50 against HCT-116 (8g 24 nM, 8h 23 nM), qRT-PCR
Protocol: as §4
TNF-α and IL6 a determination
as §5, §6, §7, §8, §9, §10, §11, §12, §13, §14, §15, §16
TNF-α : R 5'- [sequence] -3'.
IL6 : R 5'- [sequence] -3
GAPDH : R 5’- [sequence]-3’

Caspase-8 = Caspase-8 activation assay in HCT-116 cells; conditions: for Caspase-8 fold change: relative to control
[2] = Homo sapiens, HCT-116, read-out: TNF-α (% inhibition), HCT-116 cells, 24 hours, at IC50 against HCT-116 (8g 24 nM, 8h 23 nM), qRT-PCR

Sequence of EGFR (P00533 669-1210): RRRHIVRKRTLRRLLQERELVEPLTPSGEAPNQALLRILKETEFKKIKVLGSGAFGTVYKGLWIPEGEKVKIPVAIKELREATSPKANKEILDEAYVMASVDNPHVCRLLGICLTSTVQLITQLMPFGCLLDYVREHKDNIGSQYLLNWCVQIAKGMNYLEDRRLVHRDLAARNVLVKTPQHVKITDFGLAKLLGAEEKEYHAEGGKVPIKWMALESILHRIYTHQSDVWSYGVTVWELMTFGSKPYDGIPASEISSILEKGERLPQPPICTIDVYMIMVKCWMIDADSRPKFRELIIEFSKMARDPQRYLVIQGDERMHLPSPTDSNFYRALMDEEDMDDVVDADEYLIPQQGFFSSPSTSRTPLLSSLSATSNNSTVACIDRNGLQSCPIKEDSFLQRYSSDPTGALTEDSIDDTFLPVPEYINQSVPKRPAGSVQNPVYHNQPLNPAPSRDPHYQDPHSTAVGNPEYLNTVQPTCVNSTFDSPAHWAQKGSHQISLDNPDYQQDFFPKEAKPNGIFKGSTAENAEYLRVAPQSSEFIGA

| SMILES | Bcl-2 level (Bcl-2) [ng/mL] | Bcl-2 fold reduction (Bcl-2; relative to untreated control) [fold] | Bax level (Bax) [pg/mL] | Bax fold change (Bax) [fold] | p53 level (p53) [pg/mL] | Caspase-3 Conc. (Caspase-3) | Caspase-3 fold change (Caspase-3) [fold] | IC50 [1] [nM] | Selectivity index (SI), HCT-116 (WI-38) | Selectivity index (SI), MCF-7 (WI-38) | IC50 (WI-38) [nM] | IC50 (EGFR) [nM] | inhibition at 0.023 µM (IL-6) [%] | TNF-α (% inhibition) (TNF-α) [%] | inhibition at 0.023 µM (TNF-α; [2]) [%] | Caspase-8 Conc. (Caspase-8) [ng/mL] | Caspase-8 fold change (Caspase-8) | inhibition at 0.024 µM (IL-6) [%] | inhibition at 0.024 µM (TNF-α; [2]) [%] |
| --- | --- | --- | --- | --- | --- | --- | --- | --- | --- | --- | --- | --- | --- | --- | --- | --- | --- | --- | --- |
| CCS(=O)(=O)c1ccc2[nH]nc(C(=O)NNC(=O)NC3CCCCCC3)c2c1 [Compound 8h, 2-(5-(Ethylsulfonyl)-1H-indazole-3-carbonyl)-N-(cycloheptyl)hydrazine-1-carboxamide] | 1.30 ± 0.001 | 3.90 | 510 ± 3 | 8.50 | 355 ± 2 | 510 ± 4 pg/mL and 510 ± 5 pg/mL | 7.90 | > 120 | >6.5 | >6.0 | > 150 | 68 ± 5 | 91 | 82 | ~80 | 2.15 ± 0.20 | 21 fold and 21.50 fold |  |  |
| CCS(=O)(=O)c1ccc2[nH]nc(C(=O)NNC(=O)NC34CC5CC(CC(C5)C3)C4)c2c1 [Compound 8g, 2-(5-(Ethylsulfonyl)-1H-indazole-3-carbonyl)-N-(adamantan-1-yl)hydrazine-1-carboxamide] | 1.60 ± 0.001 |  | 490 ± 2 | 8.20 | 320 ± 2 | 490 ± 3 pg/mL and 490 ± 5 pg/mL | 7.50 | > 120 | >6.0 | >5.0 | > 150 | 71 ± 5 |  | 79 |  | 1.80 ± 0.10 | 18 fold and 18.00 fold | 86 | ~80 |

From publication PMC12679585, “Design, synthesis, and characterization of novel 5-ethylsulfonyl-indazole-3-carboxamides as dual VEGFR-2 and EGFR inhibitors: apoptotic antiproliferative and immunomodulatory evaluations” (RSC Advances, 2025)
